Measurements taken from ChEMBL document CHEMBL1154194, “Glucose-containing flavones--their synthesis and antioxidant and neuroprotective activities” (Bioorg Med Chem Lett, 2009).

Key:
[1] = Antioxidant activity assessed as inhibition of xanthine/xanthine oxidase system-induced superoxide anion radical scavenging activity after 20 mins; assay type: functional
[2] = (§1) Neuroprotective activity against H2O2-induced neuronal damage in Sprague-Dawley rat cerebral cortical cells after 20 to 24 hrs by MTT assay; assay type: functional
Rattus norvegicus = organism: Rattus norvegicus; test: as §1; assay type: functional
[3] = system: Radical scavenging activity; test: Antioxidant activity assessed as DPPH radical scavenging activity after 30 mins; assay type: functional
Liver = test: Antioxidant activity in rat liver homogenate assessed as inhibition of iron-ascorbic acid mix-induced lipid peroxidation by TBARS assay; assay type: functional, tissue-based

| SMILES | IC50 [1] [µM] | IC50 [3] [µM] | IC50 (Liver) [µM] | IC50 [2] [µM] | Activity (Rattus norvegicus) |
| --- | --- | --- | --- | --- | --- |
| O=c1cc(-c2ccc(O)c(O)c2)oc2cc(OCCOC[C@@H]3OC(O)[C@@H](O)[C@H](O)[C@H]3O)cc(O)c12 (stereo partly specified) | 3.53 | 18.5 | 47.8 | 15.7 | Dose-dependent effect |
| O=C1O[C@H]([C@@H](O)CO)C(O)=C1O [ASCORBIC ACID] | > 300 | 41 | > 300 | – | – |
| O=C(COc1cc(O)c2c(=O)cc(-c3ccc(O)c(O)c3)oc2c1)OC[C@@H]1OC(O)[C@@H](O)[C@H](O)[C@H]1O (stereo partly specified) | 6.22 | 16.7 | 47.9 | 12.7 | Dose-dependent effect |
| O=c1cc(-c2ccc(O)c(O)c2)oc2cc(O)cc(O)c12 [LUTEOLIN] | 8.66 | 16.2 | 24.7 | 3.75 | – |

Second part, led by results:

| IC50 [1] [µM] | IC50 [3] [µM] | IC50 (Liver) [µM] | SMILES | IC50 [2] [µM] | Activity (Rattus norvegicus) |
| --- | --- | --- | --- | --- | --- |
| 3.28 | 17.3 | 40.4 | O=c1cc(-c2ccc(O)c(O)c2)oc2cc(OC3O[C@@H](CO)[C@H](O)[C@@H](O)[C@@H]3O)cc(O)c12 (stereo partly specified) | 7.33 | Dose-dependent effect |
| 12.8 | 15.6 | 78 | COc1c(-c2ccc(O)c(O)c2)oc2cc(OCCOC[C@@H]3OC(O)[C@@H](O)[C@H](O)[C@H]3O)cc(O)c2c1=O (stereo partly specified) | 58.4 | Dose-dependent effect |
| 17.4 | 14.2 | 19 | COc1c(-c2ccc(O)c(O)c2)oc2cc(O)cc(O)c2c1=O [3-O-METHYLQUERCETIN] | 3.5 | – |
| 10.2 | 16.9 | 43.2 | COc1c(-c2ccc(O)c(O)c2)oc2cc(OC3O[C@@H](CO)[C@H](O)[C@@H](O)[C@@H]3O)cc(O)c2c1=O (stereo partly specified) | 30.7 | Dose-dependent effect |
| 32.9 | 19.7 | 66.7 | COc1c(-c2ccc(O)c(O)c2)oc2cc(OCC(=O)OC[C@@H]3OC(O)[C@@H](O)[C@H](O)[C@H]3O)cc(O)c2c1=O (stereo partly specified) | 5.34 | Dose-dependent effect |
